Assay results from US20090312374A1, “DERIVATIVES OF 4,6-DISUBSTITUTED 1,2,4-TRIAZOLO- 1,3,4-THIADIAZOLE, A PROCESS AND USES THEREOF” (UNIVERSITY OF MYSORE, priority 2005, published 2009).

Assays:
[1] = system: cervical cancer cell line; assay: Immunofluorescence (Hoechst 33258) apoptosis, TN and NC series, cervical cancer; type: cell-based; details: versus breast cancer and normal cells; FIG. 1
Source text: (§1) Subsequently, the cells were washed with PBS.

[2] = system: advanced squamous-cell cervical cancer; details: 125 mg/m2 weekly, cited from earlier work
[3] = system: H2AX; assay: Western blot of isolated histones probed with H2AX antibody; type: cell-based; details: HeLa cells, 24 h compound treatment
Procedure: HeLa cells (3×10^6 cells per 90-mm dish) were seeded overnight, and histones were extracted from 24 h of compound treated cells as reported previously. In brief, cells were harvested, washed in ice-cold buffer A (150 mM KCl, 20 mM HEPES, pH 7.9, 0.1 mM EDTA, and 2.5 mM MgCl2) and lysed in buffer A containing 250 mM sucrose and 1% (v/v) Triton X-100. Nuclei were recovered by centrifugation and washed, and proteins were extracted for 1 h using 0.25 M HCl. The proteins were precipitated with 25% (w/v) trichloroacetic acid and sequentially washed with ice-cold acidified acetone (20 μl of 12 N HCl in 100 ml of acetone) and acetone, air-dried, and dissolved in the sample buffer (5.8 M urea, 0.9 M glacial acetic acid, 16% glycerol, and 4.8% 2-mercaptoethanol). The histones (equal amounts in all lanes) were resolved on SDS PAGE gel.
The western blot analysis was done using the isolated histones and probed with H2AX antibody and the results say that 2 of the compounds (NC-2 and NC-5) get hyperphosphorylated.

[4] = system: Breast cancer; assay: Immunofluorescence (Hoechst 33258) apoptosis, TN and NC series, breast cancer; type: cell-based; details: FIG. 1
Source text: as §1

[5] = twenty-one patients, advanced squamous-cell cervical cancer

## Cc1ccc(-c2nnc3sc(C4CCc5cc(F)ccc5O4)nn23)cc1 (stereo not drawn) [TN-4, 6-(6-fluorochroman-2-yl)-3-p-tolyl-[1,2,4]triazolo[3,4-b][1,3,4]thiadiazole]
[1]
  selected as specific to cervical cancer cell line i.e. squamous cancer cell lines: selected

## Nc1nncs1
[2]
  activity in previously treated cervical carcinoma patients: minimal activity
[2]; [5]
  patients with increasing disease: 14
  patients with partial response: One
  patients with stable disease: six

## Fc1ccc2c(c1)CCC(c1nn3c(-c4ccccc4)nnc3s1)O2 (stereo not drawn) [TN-3, 6-(6-fluorochroman-2-yl)-3-phenyl-[1,2,4]triazolo[3,4-b][1,3,4]thiadiazole]
[1]
  selected as specific to cervical cancer cell line i.e. squamous cancer cell lines: selected

## CCc1nnc2sc(-c3cccc(Cl)c3Cl)nn12 [NC-2, 6-(2,3-dichlorophenyl)-3-ethyl-[1,2,4]triazolo[3,4-b][1,3,4]thiadiazole]
[3]
  H2AX phosphorylation (western blot of isolated histones): hyperphosphorylated
[1]
  selected as specific to cervical cancer cell line i.e. squamous cancer cell lines: selected

## Clc1ccc(-c2nnc3sc(-c4cccc(Cl)c4Cl)nn23)cc1 [NC-5, 6-(2,3-dichlorophenyl)-3-(4-chlorophenyl)-[1,2,4]triazolo[3,4-b][1,3,4]thiadiazole]
[3]
  H2AX phosphorylation (western blot of isolated histones): hyperphosphorylated
[1]
  selected as specific to cervical cancer cell line i.e. squamous cancer cell lines: selected

## CCc1nnc2sc(C3CCc4cc(F)ccc4O3)nn12 (stereo not drawn) [TN-2, 6-(6-fluorochroman-2-yl)-3-ethyl-[1,2,4]triazolo[3,4-b][1,3,4]thiadiazole]
[4]
  extent of apoptosis: little apoptosis

## Fc1ccc2c(c1)CCC(c1nn3c(-c4ccc(Cl)cc4)nnc3s1)O2 (stereo not drawn) [TN-5, 3-(4-chlorophenyl)-6-(6-fluorochroman-2-yl)-[1,2,4]triazolo[3,4-b][1,3,4]thiadiazole]
[4]
  extent of apoptosis: little apoptosis
